Measured values reported in the NIST ThermoML archive (doi:10.1016/j.jct.2005.03.012).

Assay: excess molar enthalpy (molar enthalpy of mixing); xn = mol fraction of the nth substance listed
Details: Liquid

CO [methanol] + O
Details	excess molar enthalpy [kcal/mol]
355.11 K, 5000 kPa, x1 = 0.3	-0.0957
373.15 K, 5000 kPa, x1 = 0.1	-0.0386
373.15 K, 5000 kPa, x1 = 0.2	-0.053
373.15 K, 5000 kPa, x1 = 0.3	-0.0554
373.15 K, 5000 kPa, x1 = 0.4	-0.0527
373.15 K, 5000 kPa, x1 = 0.5	-0.0495
373.15 K, 5000 kPa, x1 = 0.6	-0.0465
373.15 K, 5000 kPa, x1 = 0.7	-0.0425
373.15 K, 5000 kPa, x1 = 0.8	-0.0361
373.15 K, 5000 kPa, x1 = 0.9	-0.0233
373.82 K, 5000 kPa, x1 = 0.9	-0.0227
374.46 K, 5000 kPa, x1 = 0.8	-0.0342
374.83 K, 5000 kPa, x1 = 0.7	-0.0394
375.03 K, 5000 kPa, x1 = 0.1	-0.0377
375.03 K, 5000 kPa, x1 = 0.2	-0.0491
375.03 K, 5000 kPa, x1 = 0.3	-0.0508
375.03 K, 5000 kPa, x1 = 0.4	-0.0479
375.03 K, 5000 kPa, x1 = 0.5	-0.045
375.03 K, 5000 kPa, x1 = 0.6	-0.0422
375.03 K, 5000 kPa, x1 = 0.7	-0.0388
375.03 K, 5000 kPa, x1 = 0.8	-0.0333
375.03 K, 5000 kPa, x1 = 0.9	-0.0214
375.05 K, 5000 kPa, x1 = 0.1	-0.0364
375.09 K, 5000 kPa, x1 = 0.6	-0.0424
375.26 K, 5000 kPa, x1 = 0.5	-0.0447
375.35 K, 5000 kPa, x1 = 0.9	-0.0212
375.45 K, 5000 kPa, x1 = 0.4	-0.0473
375.66 K, 5000 kPa, x1 = 0.3	-0.0498
375.68 K, 5000 kPa, x1 = 0.2	-0.0484
376.12 K, 5000 kPa, x1 = 0.8	-0.0318
376.69 K, 5000 kPa, x1 = 0.7	-0.0358
376.94 K, 5000 kPa, x1 = 0.6	-0.0382
376.98 K, 5000 kPa, x1 = 0.1	-0.034
377.07 K, 5000 kPa, x1 = 0.5	-0.0403
377.26 K, 5000 kPa, x1 = 0.4	-0.0427
377.41 K, 5000 kPa, x1 = 0.3	-0.0455
377.47 K, 5000 kPa, x1 = 0.2	-0.0447
420.87 K, 10000 kPa, x1 = 0.4	0.0499
420.97 K, 2000 kPa, x1 = 0.4	0.0467
420.98 K, 5000 kPa, x1 = 0.4	0.0483
420.98 K, 5000 kPa, x1 = 0.5	0.051
421.12 K, 10000 kPa, x1 = 0.6	0.0491
421.18 K, 5000 kPa, x1 = 0.6	0.048
421.19 K, 2000 kPa, x1 = 0.6	0.0457
421.39 K, 5000 kPa, x1 = 0.3	0.0384
421.51 K, 5000 kPa, x1 = 0.7	0.0404
421.69 K, 10000 kPa, x1 = 0.2	0.0282
421.8 K, 2000 kPa, x1 = 0.2	0.0262
421.84 K, 5000 kPa, x1 = 0.2	0.0269
421.92 K, 10000 kPa, x1 = 0.8	0.0294
421.97 K, 2000 kPa, x1 = 0.8	0.0259
421.98 K, 5000 kPa, x1 = 0.8	0.0283
422.47 K, 5000 kPa, x1 = 0.9	0.0141
422.53 K, 5000 kPa, x1 = 0.1	0.0114
422.8 K, 10000 kPa, x1 = 0.4	0.0539
422.84 K, 5000 kPa, x1 = 0.4	0.0521
422.84 K, 5000 kPa, x1 = 0.5	0.0547
422.86 K, 2000 kPa, x1 = 0.4	0.05
423.02 K, 10000 kPa, x1 = 0.6	0.0528
423.08 K, 2000 kPa, x1 = 0.6	0.049
423.12 K, 5000 kPa, x1 = 0.6	0.0512
423.14 K, 5000 kPa, x1 = 0.7	0.0432
423.15 K, 2000 kPa, x1 = 0.2	0.0278
423.15 K, 2000 kPa, x1 = 0.4	0.0501
423.15 K, 2000 kPa, x1 = 0.6	0.0484
423.15 K, 2000 kPa, x1 = 0.8	0.027
423.15 K, 5000 kPa, x1 = 0.1	0.0118
423.15 K, 5000 kPa, x1 = 0.2	0.0287
423.15 K, 5000 kPa, x1 = 0.3	0.0414
423.15 K, 5000 kPa, x1 = 0.4	0.0522
423.15 K, 5000 kPa, x1 = 0.5	0.0549
423.15 K, 5000 kPa, x1 = 0.6	0.0514
423.15 K, 5000 kPa, x1 = 0.7	0.0421
423.15 K, 5000 kPa, x1 = 0.8	0.0294
423.15 K, 5000 kPa, x1 = 0.9	0.0143
423.15 K, 10000 kPa, x1 = 0.2	0.0302
423.15 K, 10000 kPa, x1 = 0.4	0.0538
423.15 K, 10000 kPa, x1 = 0.6	0.0531
423.15 K, 10000 kPa, x1 = 0.8	0.0302
423.37 K, 5000 kPa, x1 = 0.3	0.0416
423.39 K, 5000 kPa, x1 = 0.8	0.0299
423.49 K, 2000 kPa, x1 = 0.8	0.0275
423.62 K, 10000 kPa, x1 = 0.8	0.0305
423.64 K, 10000 kPa, x1 = 0.2	0.0315
423.68 K, 5000 kPa, x1 = 0.2	0.0299
423.69 K, 2000 kPa, x1 = 0.2	0.0288
423.76 K, 5000 kPa, x1 = 0.9	0.0151
424.45 K, 5000 kPa, x1 = 0.1	0.0132
424.96 K, 5000 kPa, x1 = 0.1	0.0136
424.96 K, 5000 kPa, x1 = 0.2	0.0315
424.96 K, 5000 kPa, x1 = 0.3	0.0442
424.96 K, 5000 kPa, x1 = 0.4	0.056
424.96 K, 5000 kPa, x1 = 0.5	0.0586
424.96 K, 5000 kPa, x1 = 0.6	0.0565
424.96 K, 5000 kPa, x1 = 0.7	0.0451
424.96 K, 5000 kPa, x1 = 0.8	0.0318
424.96 K, 5000 kPa, x1 = 0.9	0.016
425 K, 2000 kPa, x1 = 0.2	0.0306
425 K, 2000 kPa, x1 = 0.4	0.054
425 K, 2000 kPa, x1 = 0.6	0.0545
425 K, 2000 kPa, x1 = 0.8	0.0286
425.1 K, 10000 kPa, x1 = 0.2	0.0334
425.1 K, 10000 kPa, x1 = 0.4	0.0578
425.1 K, 10000 kPa, x1 = 0.6	0.0584
